Results on 24 molecules are retold here after patent publication US10981894B2, “Melanocortin subtype-2 receptor (MC2R) antagonists and uses thereof” (Crinetics Pharmaceuticals, Inc., priority 2018, dated 2021).

Sequence of hMC2 receptor (Q01718 whole entry): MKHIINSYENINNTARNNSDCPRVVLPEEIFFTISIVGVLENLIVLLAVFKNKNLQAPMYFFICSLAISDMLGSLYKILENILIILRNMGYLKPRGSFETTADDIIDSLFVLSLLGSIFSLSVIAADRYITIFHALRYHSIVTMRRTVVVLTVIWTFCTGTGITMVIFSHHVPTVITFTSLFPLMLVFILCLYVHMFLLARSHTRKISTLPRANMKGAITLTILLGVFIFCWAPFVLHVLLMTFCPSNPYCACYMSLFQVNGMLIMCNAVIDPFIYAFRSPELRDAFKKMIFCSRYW
Sequence of hMC2 receptor (Q8TCY5 whole entry partner): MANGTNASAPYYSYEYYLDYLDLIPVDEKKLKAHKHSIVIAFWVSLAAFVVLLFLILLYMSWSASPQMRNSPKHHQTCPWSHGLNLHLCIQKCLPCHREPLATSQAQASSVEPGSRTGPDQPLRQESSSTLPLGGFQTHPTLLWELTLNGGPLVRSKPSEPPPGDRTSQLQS

The assay has as its target hMC2 receptor (Homo sapiens, UniProt Q01718). Briefly: hMC2 membrane binding assay ([125I]ACTH (1-39) Tyr23, SPA). The settings on record: crude hMC2R membranes from CRE-bla-CHO-K1 cells expressing hMC2 receptor and hMRAP; [125I]ACTH (1-39) Tyr23 0.2 nM; 1.5 hours at room temperature; read-out: MC2R binding potency. Set-up: scale not given here. Put shortly:
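Ki comes from non-linear regression of SPA scintillation counts. Displacement of 0.2 nM [125I]ACTH(1-39) Tyr23 by compound dose series (usually 0–10,000 nM final) ran 1.5 h at room temperature. Membranes came from CHO-K1 CRE-bla cells stably expressing hMC2R plus hMRAP, bead-coupled in pH 7.4 buffer with 0.2% BSA.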
Consider `CCOc1ncccc1-c1ccc(N2CCN(C(=O)c3ccc(C(F)(F)F)cc3Cl)C[C@H]2CC)c(C(=O)NCCN)c1` [Compound 1-34, N-(2-aminoethyl)-2-[(2R)-4-[2-chloro-4-(trifluoromethyl)benzoyl]-2-ethylpiperazin-1-yl]-5-(2-ethoxypyridin-3-yl)benzamide], for which the Ki is under 10 nM. For `CCOc1ncccc1-c1ccc(N2CCN(C(=O)OC3(CC)CCCC3)C[C@H]2CC)c(C(=O)N[C@@H]2CCN(C)C2)n1` [Compound 1-397, 1-ethylcyclopentyl (3R)-4-(2′-ethoxy-6-{[(3R)-1-methylpyrrolidin-3-yl]carbamoyl}-[2,3′-bipyridin]-5-yl)-3-ethylpiperazine-1-carboxylate] the value was under 10 nM.

Regarding `CCOc1ccccc1-c1ccc(N2CCN(C(=O)C34CCC(C(F)(F)F)(CC3)C4)C[C@H]2CC)c(C(=O)N[C@@H]2CCN(C)C2)n1` [Compound 1-388, 6-(2-ethoxyphenyl)-3-[(2R)-2-ethyl-4-[4-(trifluoromethyl)bicyclo[2.2.1]heptane-1-carbonyl]piperazin-1-yl]-N-[(3R)-1-methylpyrrolidin-3-yl]pyridine-2-carboxamide], the Ki is under 10 nM. For `CCOc1ncccc1-c1ccc(N2CCN(C(=O)N3CCc4cc(F)cc(Cl)c43)C[C@H]2CC)c(C(=O)N[C@H]2CCN(C)C2)n1` [Compound 1-419, 5-[(2R)-4-(7-chloro-5-fluoro-2,3-dihydro-1H-indole-1-carbonyl)-2-ethylpiperazin-1-yl]-2′-ethoxy-N-[(3S)-1-methylpyrrolidin-3-yl]-[2,3′-bipyridine]-6-carboxamide] the value was under 10 nM; for `CCOc1ncccc1-c1ccc(N2CCN(C(=O)c3ccc(Cl)cc3Cl)C[C@H]2CC)c(C(=O)N[C@@H]2CCN(C)C2)n1` [Compound 1-259, 5-[(2R)-4-(2,4-dichlorobenzoyl)-2-ethylpiperazin-1-yl]-2′-ethoxy-N-[(3R)-1-methylpyrrolidin-3-yl]-[2,3′-bipyridine]-6-carboxamide], under 10 nM.

Turning to `CCOc1ccccc1-c1ccc(N2CCN(C(=O)c3ccc(OC)nc3C(F)(F)F)C[C@H]2CC)c(C(=O)N[C@@H]2CCNC2)n1` [Compound 1-254, 6-(2-ethoxyphenyl)-3-[(2R)-2-ethyl-4-[6-methoxy-2-(trifluoromethyl)pyridine-3-carbonyl]piperazin-1-yl]-N-[(3R)-pyrrolidin-3-yl]pyridine-2-carboxamide], the Ki is under 10 nM. Take `CC[C@@H]1CN(C(=O)c2ccc(C(F)(F)F)cc2Cl)CCN1c1ccc(-c2ccccc2Cl)cc1C(=O)NCCN` [Compound 1-6, N-(2-aminoethyl)-2′-chloro-4-[(2R)-4-[2-chloro-4-(trifluoromethyl)benzoyl]-2-ethylpiperazin-1-yl]-[1,1′-biphenyl]-3-carboxamide]: the Ki fell in the range of 10 to 100 nM.

For the molecule `CCOc1ncccc1-c1ccc(N2CCN(C(=O)C3(C(F)(F)F)CCCC3)C[C@H]2CC)c(C(=O)NC[C@H]2CCCN2C)n1` [Compound 1-333, 2′-ethoxy-5-[(2R)-2-ethyl-4-[1-(trifluoromethyl)cyclopentanecarbonyl]piperazin-1-yl]-N-{[(2R)-1-methylpyrrolidin-2-yl]methyl}-[2,3′-bipyridine]-6-carboxamide], the Ki is under 10 nM. For `CCOc1ncccc1-c1ccc(N2CCN(C(=O)c3ccc(F)cc3C(F)F)C[C@H]2CC)c(C(=O)NCCN(C)C)c1F` [Compound 1-176, 6-[(2R)-4-[2-(difluoromethyl)-4-fluorobenzoyl]-2-ethylpiperazin-1-yl]-N-[2-(dimethylamino)ethyl]-3-(2-ethoxypyridin-3-yl)-2-fluorobenzamide] the value was under 10 nM. For `CCOc1ncccc1-c1ccc(N2CCN(C(=O)c3ccc(F)cc3Cl)C[C@H]2CC)c(C(=O)N[C@@H]2CCN(C)C2)n1` [Compound 1-261, 5-[(2R)-4-[2-chloro-4-fluorobenzoyl]-2-ethylpiperazin-1-yl]-2′-ethoxy-N-[(3R)-1-methylpyrrolidin-3-yl]-[2,3′-bipyridine]-6-carboxamide], the Ki is under 10 nM. For `CCOc1ncccc1-c1ccc(N2CCN(C(=O)c3ccc(Cl)cc3C(F)(F)F)C[C@H]2CC)c(C(=O)NCC2CN(C)C2)n1` [Compound 1-223, 5-[(2R)-4-[4-chloro-2-(trifluoromethyl)benzoyl]-2-ethylpiperazin-1-yl]-2′-ethoxy-N-[(1-methylazetidin-3-yl)methyl]-[2,3′-bipyridine]-6-carboxamide] the value was under 10 nM; for `CCOc1ncccc1-c1ccc(N2CCN(C(=O)C3(C(F)(F)F)CCCC3)C[C@H]2CC)c(C(=O)NC[C@H]2CCN2)n1` [Compound 1-327, N-{[(2R)-azetidin-2-yl]methyl}-2′-ethoxy-5-[(2R)-2-ethyl-4-[1-(trifluoromethyl)cyclopentanecarbonyl]piperazin-1-yl]-[2,3′-bipyridine]-6-carboxamide], under 10 nM; for `CCOc1ncccc1-c1ccc(N2CCN(C(=O)c3ccc(OC)cc3C(F)(F)F)C[C@H]2CC)c(C(=O)NCCNC)n1` [Compound 1-167, 2′-ethoxy-5-[(2R)-2-ethyl-4-[4-methoxy-2-(trifluoromethyl)benzoyl]piperazin-1-yl]-N-[2-(methylamino)ethyl]-[2,3′-bipyridine]-6-carboxamide], under 10 nM. For `CCOc1ncccc1-c1ccc(N2CCN(C(=O)C3CCc4cccc(Cl)c43)C[C@H]2CC)c(C(=O)N[C@@H]2CCN(C)C2)n1` (stereo partly drawn) [Compound 1-382, 5-[(2R)-4-(7-chloro-2,3-dihydro-1H-indene-1-carbonyl)-2-ethylpiperazin-1-yl]-2′-ethoxy-N-[(3R)-1-methylpyrrolidin-3-yl]-[2,3′-bipyridine]-6-carboxamide] the value was under 10 nM. For `CCOc1ccccc1-c1ccc(N2CCN(C(=O)N3CCCC[C@H]3C(F)(F)F)C[C@H]2CC)c(C(=O)N[C@@H]2CCN(C)C2)n1` [Compound 1-433, 6-(2-ethoxyphenyl)-3-[(2R)-2-ethyl-4-[(2S)-2-(trifluoromethyl)piperidine-1-carbonyl]piperazin-1-yl]-N-[(3R)-1-methylpyrrolidin-3-yl]pyridine-2-carboxamide] the value was under 10 nM; for `CCOc1ncccc1-c1ccc(N2CCN(C(=O)OC(C(C)(C)C)C(F)(F)F)C[C@H]2CC)c(C(=O)N[C@@H]2CCN(C)C2)n1` (stereo partly drawn) [Compound 1-376, 1,1,1-trifluoro-3,3-dimethylbutan-2-yl (3R)-4-(2′-ethoxy-6-{[(3R)-1-methylpyrrolidin-3-yl]carbamoyl}-[2,3′-bipyridin]-5-yl)-3-ethylpiperazine-1-carboxylate], under 10 nM; for `CCOc1ncccc1-c1ccc(N2CCN(C(=O)c3ccc(Cl)cc3C(F)(F)F)C[C@H]2CC)c(C(=O)N[C@H]2CCCNC2)c1` [Compound 1-100, 2-[(2R)-4-[4-chloro-2-(trifluoromethyl)benzoyl]-2-ethylpiperazin-1-yl]-5-(2-ethoxypyridin-3-yl)-N-[(3 S)-piperidin-3-yl]benzamide], under 10 nM. For the molecule `CCOc1ncccc1-c1ccc(N2CCN(C(=O)c3ccc(Cl)cc3C(F)(F)F)C[C@H]2CC)c(C(=O)NCC2=NCCN2C)n1` [Compound 1-227, 5-[(2R)-4-[4-chloro-2-(trifluoromethyl)benzoyl]-2-ethylpiperazin-1-yl]-2′-ethoxy-N-[(1-methyl-4,5-dihydro-1H-imidazol-2-yl)methyl]-[2,3′-bipyridine]-6-carboxamide], the Ki was under 10 nM.

Take `CCOc1ncccc1-c1ccc(N2CCN(C(=O)C3(C(F)(F)F)CCCC3)C[C@H]2CC)c(C(=O)NCC2CN(C)C2)n1` [Compound 1-313, 2′-ethoxy-5-[(2R)-2-ethyl-4-[1-(trifluoromethyl)cyclopentanecarbonyl]piperazin-1-yl]-N-[(1-methylazetidin-3-yl)methyl]-[2,3′-bipyridine]-6-carboxamide]: the Ki is under 10 nM. For `CCOc1ncccc1-c1ccc(N2CCN(C(=O)C3(C(F)(F)F)CCCC3)C[C@H]2CC)c(C(=O)NC2CN(C)C2)n1` [Compound 1-241, 2′-ethoxy-5-[(2R)-2-ethyl-4-[1-(trifluoromethyl)cyclopentanecarbonyl]piperazin-1-yl]-N-(1-methylazetidin-3-yl)-[2,3′-bipyridine]-6-carboxamide] the value was under 10 nM. For `CCOc1ncccc1-c1ccc(N2CCN(C(=O)c3ccc(Cl)cc3C(F)F)C[C@H]2CC)c(C(=O)N[C@@H]2CCNC2)c1F` [Compound 1-190, 6-[(2R)-4-[4-chloro-2-(difluoromethyl)benzoyl]-2-ethylpiperazin-1-yl]-3-(2-ethoxypyridin-3-yl)-2-fluoro-N-[(3R)-pyrrolidin-3-yl]benzamide] the value was under 10 nM; for `CCOc1ccccc1-c1ccc(N2CCN(C(=O)c3ccc(Cl)cc3Cl)C[C@H]2CC)c(C(=O)NCCN)c1` [Compound 1-15, (R)-N-(2-aminoethyl)-4-(4-(2,4-dichlorobenzoyl)-2-ethylpiperazin-1-yl)-2′-ethoxy-[1,1′-biphenyl]-3-carboxamide], under 10 nM; for `CCOc1ncccc1-c1ccc(N2CCN(C(=O)c3ccc(Cl)cc3C(F)(F)F)C[C@H]2CC)c(C(=O)NCC2CNC2)n1` [Compound 1-222, N-[(azetidin-3-yl)methyl]-5-[(2R)-4-[4-chloro-2-(trifluoromethyl)benzoyl]-2-ethylpiperazin-1-yl]-2′-ethoxy-[2,3′-bipyridine]-6-carboxamide], under 10 nM. For `CCOc1ncccc1-c1ccc(N2CCN(C(=O)C34CCC(C(F)(F)F)(CC3)CC4)C[C@H]2CC)c(C(=O)N[C@@H]2CCN(C)C2)n1` [Compound 1-282, 2′-ethoxy-5-[(2R)-2-ethyl-4-[4-(trifluoromethyl)bicyclo[2.2.2]octane-1-carbonyl]piperazin-1-yl]-N-[(3R)-1-methylpyrrolidin-3-yl]-[2,3′-bipyridine]-6-carboxamide] the value was under 10 nM.
